{"source": "patent US20250064762A1", "about": "“A SUBSTITUTED AROMATIC DICARBONIC ACID AMIDE AS AN INHIBITOR OF THE FERROPTOSIS SUPPRESSOR PROTEIN-1 (FSP1)” (JULIUS-MAXIMILIANS-UNIVERSITÄT WÜRZBURG, priority 2021, published 2025)", "system": "HT1080 cells", "assay": "Western blot of ferroptosis regulators GPX4, ACSL4 and FSP1", "type": "cell-based, human", "details": "100 μM CPBA; 16 h; liproxstatin-1 100 nM", "description": "Cultured cells were lysed in 50 mM Tris, pH 7.5; 150 mM NaCl; 1% (v/v) Triton X-100; 0.5% (w/v) sodium deoxycholate; 0.1% (w/v) sodium dodecyl sulfate; 5 μg/mL aprotinin, 1 μg/mL leupeptin, 1 μg/mL pepstatin, and 1 mM 4-(2-aminoethyl)benzenesulfonyl fluoride (Pefabloc). Protein concentrations were determined using the Micro BCA Protein Assay Kit (Thermo Fisher Scientific). Proteins were separated by SDS-PAGE, transferred to nitrocellulose membranes by semidry-blotting, and incubated with the indicated antibodies.\nWestern blots were quantified using the public domain NIH Image program (developed at the U.S. National Institutes of Health, http://rsb.info.nih.gov/nih-image/). Statistical analysis was performed using GraphPad Prism version 7.05 or 9.1.2 (GraphPad, San Diego, CA, USA).\nHT1080 cells were cultured in the presence of liproxstatin-1 (100 nM), and incubated for 16 h with the solvent control DMSO (0.1%), RSL3 (1 μM), FIN56 (10 μM), or BSO (100 μM) in the presence of either 0.1% DMSO (−) or 100 μM CPBA (+). Cells were lysed and probed with the indicated antibodies as described above. […] Quantification of relative intensity of Western Blot bands was performed as described above (see FIG. 7)."}
{"compound": "O=C(Nc1ccccc1C(=O)O)c1ccc(Oc2ccc(C(=O)Nc3ccccc3C(=O)O)cc2)cc1", "note": "[CPBA, 2-[[4-[4-[(2-carboxyphenyl)carbamoyl]phenoxy]benzoyl]amino]-benzoic acid]", "values": [{"measurement": "expression of GPX4, ACSL4 and FSP1", "result": "not affected by the presence of CPBA"}]}
